This data set in a line: Solubility of tegaserod in water. To be noted: at 25° C. in water. It counts as physicochemical. As to the method:
A preferred agent is tegaserod, a 5-HT4 partial agonist of formula [drawing 1] or pharmaceutically acceptable salt form thereof, e.g. the hydrogen maleate (hereinafter “hml”) salt. Tegaserod has a solubility of about 0.02% at 25° C. in water and is acid sensitive.

As to `CCCCCNC(=N)NN=Cc1c[nH]c2ccc(OC)cc12` [Tegaserod, 3-(5-methoxy-1H-Indol-3-yl-methylene)-N-pentylcarbazimidamide], the solubility result is given as “about 0.02%”.
